Test results from patent US9701662B2, “Herbicidal compounds” (Syngenta Participations AG, priority 2014, dated 2017).

How the values were obtained:
Format in all cases: in vivo
[1] = tested on: Setaria faberi (SETFA); assay: Pre-emergence glasshouse herbicide test; details: pre-emergence (sprayed after one day cultivation), 1000 g/h, evaluated after 13 days, five point scale
Experimental: (§1) Seeds of a variety of test species are sown in standard soil in pots (Lolium perenne (LOLPE), Solanum nigrum (SOLNI), Amaranthus retoflexus (AMARE), Setaria faberi (SETFA), Echinochloa crus-galli (ECHCG), Ipomoea hederacea (IPOHE)). After cultivation for one day (pre-emergence) or after 8 days cultivation (post-emergence) under controlled conditions in a glasshouse (at 24/16° C., day/night; 14 hours light; 65% humidity), the plants are sprayed with an aqueous spray solution derived from the formulation of the technical active ingredient in acetone/water (50:50) solution containing 0.5% Tween 20 (polyoxyethelyene sorbitan monolaurate, CAS RN 9005-64-5). Compounds are applied at 1000 g/h. The test plants are then grown in a glasshouse under controlled conditions in a glasshouse (at 24/16° C., day/night; 14 hours light; 65% humidity) and watered twice daily. After 13 days for pre and post-emergence, the test is evaluated for the percentage damage caused to the plant. The biological activities are shown in the following table on a five point scale (5=80-100%; 4=60-79%; 3=40-59%; 2=20-39%; 1=0-19%).

[2] = tested on: Lolium perenne (LOLPE); assay: Pre-emergence glasshouse herbicide test; details: pre-emergence (sprayed after one day cultivation), 1000 g/h, evaluated after 13 days, five point scale
Experimental: as §1

[3] = tested on: Ipomoea hederacea (IPOHE); assay: Pre-emergence glasshouse herbicide test; details: pre-emergence (sprayed after one day cultivation), 1000 g/h, evaluated after 13 days, five point scale
Experimental: as §1

[4] = tested on: Amaranthus retoflexus (AMARE); assay: Pre-emergence glasshouse herbicide test; details: pre-emergence (sprayed after one day cultivation), 1000 g/h, evaluated after 13 days, five point scale
Experimental: as §1

[5] = tested on: Solanum nigrum (SOLNI); assay: Pre-emergence glasshouse herbicide test; details: pre-emergence (sprayed after one day cultivation), 1000 g/h, evaluated after 13 days, five point scale
Experimental: as §1

[6] = tested on: Echinochloa crus-galli (ECHCG); assay: Pre-emergence glasshouse herbicide test; details: pre-emergence (sprayed after one day cultivation), 1000 g/h, evaluated after 13 days, five point scale
Experimental: as §1

[7] = tested on: Setaria faberi (SETFA); assay: Post-emergence glasshouse herbicide test; details: post-emergence (sprayed after 8 days cultivation), 1000 g/h, evaluated after 13 days, five point scale
Experimental: as §1

[8] = tested on: Lolium perenne (LOLPE); assay: Post-emergence glasshouse herbicide test; details: post-emergence (sprayed after 8 days cultivation), 1000 g/h, evaluated after 13 days, five point scale
Experimental: as §1

[9] = tested on: Ipomoea hederacea (IPOHE); assay: Post-emergence glasshouse herbicide test; details: post-emergence (sprayed after 8 days cultivation), 1000 g/h, evaluated after 13 days, five point scale
Experimental: as §1

[10] = tested on: Amaranthus retoflexus (AMARE); assay: Post-emergence glasshouse herbicide test; details: post-emergence (sprayed after 8 days cultivation), 1000 g/h, evaluated after 13 days, five point scale
Experimental: as §1

[11] = tested on: Solanum nigrum (SOLNI); assay: Post-emergence glasshouse herbicide test; details: post-emergence (sprayed after 8 days cultivation), 1000 g/h, evaluated after 13 days, five point scale
Experimental: as §1

[12] = tested on: Echinochloa crus-galli (ECHCG); assay: Post-emergence glasshouse herbicide test; details: post-emergence (sprayed after 8 days cultivation), 1000 g/h, evaluated after 13 days, five point scale
Experimental: as §1

Compound: Cn1nnnc1NC(=O)c1nn(C)c(=O)c(-c2ccc(Cl)cc2Cl)c1Cl [Compound 1.011]
- percentage damage caused to the plant, SETFA, PRE Application [1]: 5 (5=80-100%)
- percentage damage caused to the plant, LOLPE, PRE Application [2]: 5 (5=80-100%)
- percentage damage caused to the plant, IPOHE, PRE Application [3]: 3 (3=40-59%)
- percentage damage caused to the plant, AMARE, PRE Application [4]: 5 (5=80-100%)
- percentage damage caused to the plant, SOLNI, PRE Application [5]: 5 (5=80-100%)
- percentage damage caused to the plant, ECHCG, PRE Application [6]: 5 (5=80-100%)
- percentage damage caused to the plant, SETFA, POST Application [7]: 5 (5=80-100%)
- percentage damage caused to the plant, LOLPE, POST Application [8]: 5 (5=80-100%)
- percentage damage caused to the plant, IPOHE, POST Application [9]: 4 (4=60-79%)
- percentage damage caused to the plant, AMARE, POST Application [10]: 3 (3=40-59%)
- percentage damage caused to the plant, SOLNI, POST Application [11]: 5 (5=80-100%)
- percentage damage caused to the plant, ECHCG, POST Application [12]: 5 (5=80-100%)

Compound: Cn1nnnc1NC(=O)c1nn(C)c(=O)c(-c2cccc(Cl)c2)c1Cl [Compound 1.012]
- percentage damage caused to the plant, SETFA, PRE Application [1]: 5 (5=80-100%)
- percentage damage caused to the plant, LOLPE, PRE Application [2]: 5 (5=80-100%)
- percentage damage caused to the plant, IPOHE, PRE Application [3]: 4 (4=60-79%)
- percentage damage caused to the plant, AMARE, PRE Application [4]: 5 (5=80-100%)
- percentage damage caused to the plant, SOLNI, PRE Application [5]: 5 (5=80-100%)
- percentage damage caused to the plant, ECHCG, PRE Application [6]: 5 (5=80-100%)
- percentage damage caused to the plant, SETFA, POST Application [7]: 4 (4=60-79%)
- percentage damage caused to the plant, LOLPE, POST Application [8]: 5 (5=80-100%)
- percentage damage caused to the plant, IPOHE, POST Application [9]: 3 (3=40-59%)
- percentage damage caused to the plant, AMARE, POST Application [10]: 5 (5=80-100%)
- percentage damage caused to the plant, SOLNI, POST Application [11]: 5 (5=80-100%)
- percentage damage caused to the plant, ECHCG, POST Application [12]: 5 (5=80-100%)

Compound: Cn1nnnc1NC(=O)c1nn(C)c(=O)c(-c2ccc(Cl)cc2)c1Cl [Compound 1.013]
- percentage damage caused to the plant, SETFA, PRE Application [1]: 5 (5=80-100%)
- percentage damage caused to the plant, LOLPE, PRE Application [2]: 5 (5=80-100%)
- percentage damage caused to the plant, IPOHE, PRE Application [3]: 2 (2=20-39%)
- percentage damage caused to the plant, AMARE, PRE Application [4]: 5 (5=80-100%)
- percentage damage caused to the plant, SOLNI, PRE Application [5]: 5 (5=80-100%)
- percentage damage caused to the plant, ECHCG, PRE Application [6]: 5 (5=80-100%)
- percentage damage caused to the plant, SETFA, POST Application [7]: 3 (3=40-59%)
- percentage damage caused to the plant, LOLPE, POST Application [8]: 5 (5=80-100%)
- percentage damage caused to the plant, IPOHE, POST Application [9]: 2 (2=20-39%)
- percentage damage caused to the plant, AMARE, POST Application [10]: 3 (3=40-59%)
- percentage damage caused to the plant, SOLNI, POST Application [11]: 5 (5=80-100%)
- percentage damage caused to the plant, ECHCG, POST Application [12]: 5 (5=80-100%)

Compound: Cc1ccc(-c2c(Cl)c(C(=O)Nc3nnnn3C)nn(C)c2=O)cc1 [Compound 1.015]
- percentage damage caused to the plant, SETFA, PRE Application [1]: 5 (5=80-100%)
- percentage damage caused to the plant, LOLPE, PRE Application [2]: 5 (5=80-100%)
- percentage damage caused to the plant, IPOHE, PRE Application [3]: 2 (2=20-39%)
- percentage damage caused to the plant, AMARE, PRE Application [4]: 5 (5=80-100%)
- percentage damage caused to the plant, SOLNI, PRE Application [5]: 5 (5=80-100%)
- percentage damage caused to the plant, ECHCG, PRE Application [6]: 5 (5=80-100%)
- percentage damage caused to the plant, SETFA, POST Application [7]: 5 (5=80-100%)
- percentage damage caused to the plant, LOLPE, POST Application [8]: 5 (5=80-100%)
- percentage damage caused to the plant, IPOHE, POST Application [9]: 3 (3=40-59%)
- percentage damage caused to the plant, AMARE, POST Application [10]: 5 (5=80-100%)
- percentage damage caused to the plant, SOLNI, POST Application [11]: 5 (5=80-100%)
- percentage damage caused to the plant, ECHCG, POST Application [12]: 5 (5=80-100%)

Compound: COc1ccc(-c2c(Cl)c(C(=O)Nc3nnnn3C)nn(C)c2=O)cc1 [Compound 1.016]
- percentage damage caused to the plant, SETFA, PRE Application [1]: 5 (5=80-100%)
- percentage damage caused to the plant, LOLPE, PRE Application [2]: 5 (5=80-100%)
- percentage damage caused to the plant, IPOHE, PRE Application [3]: 1 (1=0-19%)
- percentage damage caused to the plant, AMARE, PRE Application [4]: 5 (5=80-100%)
- percentage damage caused to the plant, SOLNI, PRE Application [5]: 5 (5=80-100%)
- percentage damage caused to the plant, ECHCG, PRE Application [6]: 5 (5=80-100%)
- percentage damage caused to the plant, SETFA, POST Application [7]: 5 (5=80-100%)
- percentage damage caused to the plant, LOLPE, POST Application [8]: 5 (5=80-100%)
- percentage damage caused to the plant, IPOHE, POST Application [9]: 4 (4=60-79%)
- percentage damage caused to the plant, AMARE, POST Application [10]: 5 (5=80-100%)
- percentage damage caused to the plant, SOLNI, POST Application [11]: 5 (5=80-100%)
- percentage damage caused to the plant, ECHCG, POST Application [12]: 5 (5=80-100%)
